How the values were obtained:
Aβ42 = conditions: cited from earlier work
secreted Aβ40 and Aβ42 = assay: Aβ ELISA in CHO-APP cells treated with compounds; assay type: cell-based, hamster (CHO) cells expressing human APP; conditions: 50 μg/ml, 6 and 24 hours, normalized to full-length APP and vehicle-treated cells
Procedure: CHO cells stably transfected with human APP751 (CHO-APP cells) were treated with compounds as described above. The compounds were used at 50 μg/ml for 6 and 24 hours. Levels of secreted Aβ40 and Aβ42 were determined using a commercial Aβ ELISA kit (Biosource) and normalized to cell-associated full-length APP. The relative levels of Aβ40 (white bar) and Aβ42 (black bar) were normalized to values obtained from vehicle-treated cells and are shown as % to control. […] (D10=20(S), 24(R)-epoxydammarane-3β,25-diol; D2=Dammar-24-ene-3β,20(S)-diol; D3=reduction mixture of dammar resin by NaBH4; D5=Dammar resin mixture; D6=dipterocarpol; D7=t-butylhydroperoxide-oxidized products of D3. D8=3-acetyl Dammar-24-ene-3A, 20(S)-diol; D9=3-acetyl 20(S),24(R)-epoxydammarane-3β,25-diol; D10=20(S),24(R)-epoxydammarane-3×, 25-diol; D11=Dammar-24-ene-3×, 20(S)-diol; D12=tetraacetyl 20-hydroxydammar-24-ene-3-yl-glucopyranoside; D13=20-hydroxydammar-24-ene-3-yl-glucopyranoside; D15=20(S), 24(R)-epoxydammarane-3-oxo, 25-ol.

γ-secretase complex = conditions: partially purified γ-secretase complex; cited from earlier work

## CC(C)=CCC[C@](C)(O)[C@H]1CC[C@]2(C)[C@@H]1[C@H](O)C[C@@H]1[C@@]3(C)CC[C@H](O[C@@H]4O[C@H](CO)[C@@H](O)[C@H](O)[C@H]4O[C@@H]4O[C@H](CO)[C@@H](O)[C@H](O)[C@H]4O)C(C)(C)[C@@H]3CC[C@]12C [(20S)Rg3]
Aβ42; mammalian cells
  production of Aβ42 in mammalian cells: lower the production of Aβ42 in mammalian cells

## CC(C)(O)[C@H]1CC[C@@](C)([C@H]2CC[C@]3(C)[C@@H]2CC[C@@H]2[C@@]4(C)CC[C@H](O)C(C)(C)[C@@H]4CC[C@]23C)O1 [Compound D1, 20(S), 24(R)-epoxydammarane-3β, 25-diol]
Secreted Aβ40 and Aβ42
  selective potentiation of Aβ42 production: selectively potentiated Aβ42 production

## CC(C)=CCCC(C)(O)C1CC[C@]2(C)C1CCC1[C@@]3(C)CC[C@H](O)C(C)(C)C3CC[C@]12C (stereo partly drawn) [Compound D2, Dammar-24-ene-3β,20(S)-diol]
Secreted Aβ40 and Aβ42
  selective potentiation of Aβ42 production: selectively potentiated Aβ42 production

## CC(C)=CCC[C@](C)(O)[C@H]1CC[C@]2(C)[C@@H]1CC[C@@H]1[C@@]3(C)CCC(=O)C(C)(C)[C@@H]3CC[C@]12C [Compound D6, dipterocarpol]
Secreted Aβ40 and Aβ42
  Aβ-lowering activity (levels of secreted Aβ40 and Aβ42, % to control): exhibited Aβ-lowering activities

## CC(=O)O[C@H]1CC[C@]2(C)[C@H]3CC[C@@H]4[C@@H]([C@]5(C)CC[C@H](C(C)(C)O)O5)CC[C@@]4(C)[C@]3(C)CC[C@H]2C1(C)C [Compound D9, 3-acetyl 20(S),24(R)-epoxydammarane-3β,25-diol]
Secreted Aβ40 and Aβ42
  selective potentiation of Aβ42 production: selectively potentiated Aβ42 production

## CC(C)(O)[C@H]1CC[C@@](C)([C@H]2CC[C@]3(C)[C@@H]2CC[C@@H]2[C@@]4(C)CC[C@@H](O)C(C)(C)[C@@H]4CC[C@]23C)O1 [Compound D10, 20(S),24(R)-epoxydammarane-3 cc, 25-diol]
Secreted Aβ40 and Aβ42
  Aβ-lowering activity (levels of secreted Aβ40 and Aβ42, % to control): exhibited Aβ-lowering activities

## CC(C)=CCCC(C)(O)C1CC[C@]2(C)C1CCC1[C@@]3(C)CC[C@@H](O)C(C)(C)C3CC[C@]12C (stereo partly drawn) [Compound D11, Dammar-24-ene-3α,20(S)-diol]
Secreted Aβ40 and Aβ42
  Aβ-lowering activity (levels of secreted Aβ40 and Aβ42, % to control): exhibited Aβ-lowering activities

## CC(C)(O)C1CCC(C)(C2CCC3(C)C2CCC2C4(C)CCC(=O)C(C)(C)C4CCC23C)O1 [Compound D15, 20(S), 24(R)-epoxydammarane-3-oxo, 25-ol]
Secreted Aβ40 and Aβ42
  Aβ-lowering activity (levels of secreted Aβ40 and Aβ42, % to control): exhibited Aβ-lowering activities

## CC(C)=CCC[C@](C)(O[C@@H]1O[C@H](CO)[C@@H](O)[C@H](O)[C@H]1O)[C@H]1CC[C@]2(C)[C@@H]1[C@H](O)C[C@@H]1[C@@]3(C)CC[C@H](O)C(C)(C)[C@@H]3[C@@H](O[C@@H]3O[C@H](CO)[C@@H](O)[C@H](O)[C@H]3O)C[C@]12C [Rg1]
Aβ42; in vitro
  amyloid-reducing activity in vitro: no amyloid-reducing activity in vitro

## CC(C)=CC/C=C(\C)[C@H]1CC[C@]2(C)[C@@H]1[C@H](O)C[C@@H]1[C@@]3(C)CC[C@H](O[C@@H]4O[C@H](CO)[C@@H](O)[C@H](O)[C@H]4O[C@@H]4O[C@H](CO)[C@@H](O)[C@H](O)[C@H]4O)C(C)(C)[C@@H]3CC[C@]12C [Rg5]
Aβ42; mammalian cells
  production of Aβ42 in mammalian cells: lower the production of Aβ42 in mammalian cells

## C=C(CCC=C(C)C)[C@H]1CC[C@]2(C)[C@@H]1[C@H](O)C[C@@H]1[C@@]3(C)CC[C@H](O[C@@H]4O[C@H](CO)[C@@H](O)[C@H](O)[C@H]4O[C@@H]4O[C@H](CO)[C@@H](O)[C@H](O)[C@H]4O)C(C)(C)[C@@H]3CC[C@]12C [Rk1]
Aβ42; mammalian cells
  production of Aβ42 in mammalian cells: lower the production of Aβ42 in mammalian cells
  relative effectiveness in reducing Aβ42 levels: most effective in reducing Aβ42 levels
γ-secretase complex
  Aβ42 production in cell-free assay: inhibit the Aβ42 production

## tetraacetyl 20-hydroxydammar-24-ene-3-yl-glucopyranoside [Compound D12]
Secreted Aβ40 and Aβ42
  Aβ-lowering activity (levels of secreted Aβ40 and Aβ42, % to control): exhibited Aβ-lowering activities

— US20060014729A1, “Compounds and their preparation for the treatment of Alzheimer's disease by inhibiting beta-amyloid peptide production” (priority 2004, published 2006)
